Test results as given in article PMC8878317, “Chemogenomics identifies acetyl-coenzyme A synthetase as a target for malaria treatment and prevention” (Cell Chemical Biology, 2022).

Test system: P. falciparum 3D7 parasites
Test: Metabolomic profiling of compound-treated parasites (LC/MS);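 as to Metabolite data: 3-Phosphoglycerate: Log2 fold change in abundance versus untreated parasite controls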;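 as to Metabolite data: Myo-Inositol: Log2 fold change in abundance versus untreated parasite controls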;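 as to Metabolite data: N-Carbamoyl-L-Aspartate: Log2 fold change in abundance versus untreated parasite controls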;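 as to Metabolite data: Nicotinate: Log2 fold change in abundance versus untreated parasite controls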
Assay type: cell-based
Parameters: Metabolite data: dTMP / Metabolite data: GMP / Metabolite data: S-Adenosyl-L-Homocysteine / Metabolite data: 1_3-Bisphosphoglyceric acid: scale not given here
Method in brief: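 Magnetically purified trophozoites (1×10^8 parasites/mL) recovered 1 h in RPMI 1640, incubated a further 2.5 h, quenched in 90% methanol with labeled aspartate. Extracts analysed by reverse-phase C18 LC with negative-mode Orbitrap MS; peak areas normalized to internal standards, blank-subtracted and averaged by condition.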

Which results are given for `N#Cc1cc(NC(=O)[C@H]2c3ccccc3C(=O)N(CC(F)(F)F)[C@@H]2c2cccnc2)ccc1F` [SJ733]?
Metabolite data: 1_3-Bisphosphoglyceric acid: 0; Metabolite data: 2_3-Diphosphoglyceric acid: -1.405; Metabolite data: 3-Phosphoglycerate: 0.1564; Metabolite data: 4-Aminobutyrate: -0.6232; Metabolite data: 4-Phosphopantothenate: -0.06384; Metabolite data: 4-phosphopantetheine: 0; Metabolite data: 5-aminopentanoic acid: 0; Metabolite data: 5-phosphoribosyl-1-pyrophosphate: 0; Metabolite data: 6-Phospho-D-Gluconate: -0.1307; Metabolite data: ADP-D-Glucose: 0.2839; Metabolite data: Acetyl-CoA: -0.6106; Metabolite data: Acetyllysine: -2.328; Metabolite data: Aconitate: 1.12; Metabolite data: CDP: 0.04523; Metabolite data: CDP-Ethanolamine: -0.09201; Metabolite data: CDP-choline: 0; Metabolite data: CMP: 1.401; Metabolite data: CTP: -0.9536; Metabolite data: Citrate/Isocitrate: 0.1284; Metabolite data: Cyclic-AMP: -1.252; Metabolite data: Dihydroorotate: -2.603; Metabolite data: FAD: -1.458; Metabolite data: FMN: -1.104; Metabolite data: Fructose-1,6-Bisphosphate: -0.7765; Metabolite data: Fumarate: 0.221; Metabolite data: GDP: -2.218; Metabolite data: GMP: -2.3136; Metabolite data: GTP: -1.102; Metabolite data: Glucose-1/6-Phosphate: -0.8546; Metabolite data: Glutathione Disulfide: -0.003594; Metabolite data: Hexose: 0; Metabolite data: Hydroxyisocaproic acid: 0; Metabolite data: Indole: 0.01538; Metabolite data: Ketoleucine: 0; Metabolite data: L-arginino-succinate: 0; Metabolite data: Lactate: -1.557; Metabolite data: Malate: 0.2276; Metabolite data: Myo-Inositol: -4.078; Metabolite data: N-Acetyl-Glutamate: -0.1913; Metabolite data: N-Acetyl-L-Alanine: -1.649; Metabolite data: N-Acetyl-L-Ornithine: -1.387; Metabolite data: N-Carbamoyl-L-Aspartate: -4.081; Metabolite data: NAD+: -0.3968; Metabolite data: NADH: 0.5171; Metabolite data: NADP+: -0.1788; Metabolite data: NADPH: 3.012; Metabolite data: Nicotinate: 0.6001; Metabolite data: Octulose 8/1-Phosphate: -0.3837; Metabolite data: Orotate: 0.7127; Metabolite data: PD: -1.25; Metabolite data: PE: -3.092; Metabolite data: PEEK: -1.29; Metabolite data: Phenol Red: 0; Metabolite data: Pyroglutamic acid: -0.07146; Metabolite data: S-Adenosyl-L-Homocysteine: -0.5514; Metabolite data: S-methyl-5'-thioadenosine: -0.2796; Metabolite data: SD: -3.659; Metabolite data: Sedoheptulose Bisphosphate: -0.9288; Metabolite data: UDP: -0.7526; Metabolite data: UDP-D-Glucose: -0.1564; Metabolite data: UDP-D-Glucuronate: -0.198; Metabolite data: UDP-N-Acetyl-Glucosamine: 0.08301; Metabolite data: UMP: -0.4316; Metabolite data: UTP: -1.732; Metabolite data: a-ketoglutarate: 0.4286; Metabolite data: acetyl-aspartate: 0; Metabolite data: arginine: 0; Metabolite data: asparagine: 0; Metabolite data: aspartate: 0; Metabolite data: biotin: 0; Metabolite data: chlorpropamide: 0; Metabolite data: coenzyme A: 0; Metabolite data: dAMP: 2.428; Metabolite data: dATP: -0.7133; Metabolite data: dCDP: 1.868; Metabolite data: dCMP: 1.752; Metabolite data: dCTP: 0.5805; Metabolite data: dGDP/ADP: -2.35; Metabolite data: dGMP/AMP: -1.067; Metabolite data: dGTP/ATP: 0; Metabolite data: dTDP: 2.593; Metabolite data: dTMP: 4.089; Metabolite data: dTTP: 1.546; Metabolite data: folate: 0; Metabolite data: glucono-lactone: 0; Metabolite data: glutamate: 0; Metabolite data: glutamine: 0; Metabolite data: glutathione: 0; Metabolite data: histidine: 0; Metabolite data: hydroxyproline/Aminolevulinate: 0; Metabolite data: isoleucine: 0; Metabolite data: leucine: 0; Metabolite data: maleic acid: 0; Metabolite data: methionine: 0; Metabolite data: nicotinamide mononucleotide: 0; Metabolite data: orotidine-5'-phosphate: 0
